For one assay, the target named is T1, EP4 (Homo sapiens, UniProt P35408).
T1 construct: host or cells: stably transfected HEK293 cells co-expressing a promiscuous G protein and a clytin variant
Nature of the assay: Functional calcium flux assay, EP4. The class given is cell-based. The conditions noted are these: stably transfected HEK293 cells; PGE2 10 nM; read-out: EP4 Ca2+-flux assay IC50. A general note: Calcium assays in cells follow changes in intracellular calcium, usually with a dye or a luminescent sensor.

A short description of assay [1]: Relative activity of resolved enantiomers/diastereomers (assay not stated). The following applies: compared with the other eluting peak.
The target of assay [2] is T2, EP2 (Homo sapiens, UniProt P43116).
T2 sequence (P43116 whole entry): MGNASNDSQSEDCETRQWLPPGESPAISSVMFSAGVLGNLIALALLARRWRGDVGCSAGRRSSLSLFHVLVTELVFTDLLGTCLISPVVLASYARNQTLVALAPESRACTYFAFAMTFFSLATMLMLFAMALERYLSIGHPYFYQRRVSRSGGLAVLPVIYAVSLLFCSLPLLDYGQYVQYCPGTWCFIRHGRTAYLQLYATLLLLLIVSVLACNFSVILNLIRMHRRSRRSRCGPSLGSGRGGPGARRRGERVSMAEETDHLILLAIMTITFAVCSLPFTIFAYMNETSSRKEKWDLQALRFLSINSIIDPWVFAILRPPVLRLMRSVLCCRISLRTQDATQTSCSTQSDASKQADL
Method: (§1) Each receptor subtype has an additional promiscuous G protein added in order to couple the aforementioned receptor to the calcium signaling pathway. The parental cell line used also expresses a novel variant of clytin, a calcium-activated photo-protein, to enable sensitive luminescent detection. Briefly, cells were plated at 50,000 cells-per-well in black, clear bottom 96-well plates. The plated cells were allowed to sit at room temperature for 30 min prior to transferring to a humidified, 37° C., 5% CO2 incubator for 18 to 24 h. Assay buffer (HBSS with 20 mM HEPES) and loading buffer (assay buffer plus 10 μM coelenterazine) were prepared on the day of the assay. Assays were performed by aspirating media from the assay plate and washing once with assay buffer, then replacing with loading buffer and allowing the cells to incubate for 1.5 h at room temperature. Compounds were prepared in assay buffer at a 3× final concentration in non-binding plates. Compounds were added to the cell plates and incubated for 30 min at room temperature. The prostanoid receptor ligand PGE2 was prepared at a 4× dilution ratio for a final concentration of 10 nM. Plates were run on a Flexstation™ using a 100 ms integration luminescence protocol for a total of 60 sec with ligand addition at 15 sec. Data were obtained from relative light units as measured by area under the curve.
In assay [3] the target is T2, EP2. Nature of the assay: cell-based.
Method: as §1

The text below walks through data of patent publication US12215093B2, “Bicyclic carboxamides and methods of use thereof” (Tempest Therapeutics, Inc., priority 2018, dated 2025).

Read-outs that look alike come from different tables or passages of the source.

T1 sequence (P35408 whole entry): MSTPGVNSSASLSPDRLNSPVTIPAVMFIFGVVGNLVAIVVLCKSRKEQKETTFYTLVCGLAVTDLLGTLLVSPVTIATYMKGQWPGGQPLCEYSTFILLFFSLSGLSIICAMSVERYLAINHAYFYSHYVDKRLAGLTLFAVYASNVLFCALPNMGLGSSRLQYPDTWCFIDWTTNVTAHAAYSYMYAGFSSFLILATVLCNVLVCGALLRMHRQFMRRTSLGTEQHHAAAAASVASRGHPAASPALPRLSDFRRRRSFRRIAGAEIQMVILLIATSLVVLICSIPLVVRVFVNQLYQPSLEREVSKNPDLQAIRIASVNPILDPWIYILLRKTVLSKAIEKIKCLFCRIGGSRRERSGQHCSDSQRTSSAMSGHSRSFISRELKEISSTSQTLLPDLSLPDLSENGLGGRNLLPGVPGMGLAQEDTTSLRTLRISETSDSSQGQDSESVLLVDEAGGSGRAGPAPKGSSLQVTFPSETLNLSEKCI
Method for EP4: as §1

As a reminder, the IC50 is the concentration needed to halve the response being measured. Consider `CC(c1ccc(-c2ccccc2)cc1)n1ncc2cc(Cl)cc(C(=O)NC3CC4(C3)CC(C(=O)O)C4)c21` (single isomer, unassigned) [Example 174, (Sa)-6-(1-((R) or (S))-1-([1,1′-Biphenyl]-4-yl)ethyl)-5-chloro-1H-indazole-7-carboxamido)spiro[3.3]heptane-2-carboxylic acid], for which the IC50 is 6.4 nM on EP4 and < 25 nM at EP2 [2]. Besides, the “more active enantiomer / diastereomer after chiral SFC resolution” value (“more active enantiomer / diastereomer” below) in assay [1] is recorded as “more active diastereomer”.

With `O=C(NC1CC2(C1)CC(C(=O)O)C2)c1ccc(F)c2ccn(Cc3ccc(-c4ccccc4)cc3)c12` (centres unmarked) [Example 9, (Sa)-6-(1-([1,1′-Biphenyl]-4-ylmethyl)-4-fluoro-1H-indole-7-carboxamido)spiro[3.3]heptane-2-carboxylic acid], in assay [1], the “more active enantiomer / diastereomer” value was “more active enantiomer”.

Turning to `O=C(NC1CC2(C1)CC(C(=O)O)C2)c1ccc(F)c2ccn(Cc3ccc(OC(F)(F)F)cc3)c12` (centres unmarked) [Example 8, (Sa)-6-(4-Fluoro-1-(4-(trifluoromethoxy)benzyl)-1H-indole-7-carboxamido)spiro[3.3]heptane-2-carboxylic acid], the IC50 at EP4 is < 1 nM; against EP2 [3], 43 nM. Further, in assay [1], the “more active enantiomer / diastereomer” value is given as “more active enantiomer”.

With `COc1ccc(-c2ccc(Cn3ccc4c(F)ccc(C(=O)NC5CC6(C5)CC(C(=O)O)C6)c43)cc2)cc1` (racemic) [Example 12, (racemic)-6-(4-fluoro-1-((4′-methoxy-[1,1′-biphenyl]-4-yl)methyl)-1H-indole-7-carboxamido)spiro[3.3]heptane-2-carboxylic acid], the IC50 at EP4 was < 1 nM; against EP2 [3] it was < 25 nM.

`COc1ncc(-c2ccc(Cn3ccc4c(F)ccc(C(=O)NC5CC6(C5)CC(C(=O)O)C6)c43)cc2)cc1Cl` (racemic) [Example 17, (racemic)-6-(1-(4-(5-Chloro-6-methoxypyridin-3-yl)benzyl)-4-fluoro-1H-indole-7-carboxamido)spiro[3.3]heptane-2-carboxylic acid]: the IC50 was 7 nM on EP4 and < 25 nM against EP2 [3].

Take `O=C(NC1CC2(C1)CC(C(=O)O)C2)c1cccc2cnn(Cc3ccc(OC(F)(F)F)cc3)c12` (racemic) [Example 32, (racemic)-6-(1-(4-(Trifluoromethoxy)benzyl)-1H-indazole-7-carboxamido)spiro[3.3]heptane-2-carboxylic acid]: the IC50 at EP4 is < 1 nM; against EP2 [3] it was < 25 nM.

Turning to `COc1ccc(-c2ccc(Cn3ccc4c(F)ccc(C(=O)NC5CC6(C5)CC(C(=O)O)C6)c43)cc2)cc1F` (racemic) [Example 16, (racemic)-6-(4-fluoro-1-((3′-fluoro-4′-methoxy-[1,1′-biphenyl]-4-yl)methyl)-1H-indole-7-carboxamido)spiro[3.3]heptane-2-carboxylic acid], the IC50 on EP4 is < 1 nM; against EP2 [3] it was < 25 nM.

For the molecule `COc1cc(-c2ccc(Cn3ccc4c(F)ccc(C(=O)NC5CC6(C5)CC(C(=O)O)C6)c43)cc2)ccc1F` (racemic) [Example 19, (racemic)-6-(4-fluoro-1-((4′-fluoro-3′-methoxy-[1,1′-biphenyl]-4-yl)methyl)-1H-indole-7-carboxamido)spiro[3.3]heptane-2-carboxylic acid], the figures for the IC50 at EP4 and on EP2 [3] were < 1 nM and < 25 nM, respectively.

For `CC(C)(C)c1ccc(Cn2ccc3c(C#N)ccc(C(=O)NC4CC5(C4)CC(C(=O)O)C5)c32)cc1` (racemic) [Example 27, (racemic)-6-(1-(4-(tert-Butyl)benzyl)-4-cyano-1H-indole-7-carboxamido)spiro[3.3]heptane-2-carboxylic acid], the IC50 on EP4 was < 1 nM; on EP2 [3], 45 nM.

Consider `CC(c1ccc(-c2ccccc2)cc1)n1ncc2cccc(C(=O)NC3CC4(C3)CC(C(=O)O)C4)c21` (racemic) [Example 112, (Sa)-6-(1-((racemic)-1-([1,1′-Biphenyl]-4-yl)-ethyl)-1H-indazole-7-carboxamido)spiro[3.3]heptane-2-carboxylic acid], for which the IC50 on EP4 was 1.8 nM; against EP2 [3] it was < 25 nM.

In the case of `COc1cc(-c2ccc(Cn3ncc4c(Cl)ccc(C(=O)NC5CC6(C5)CC(C(=O)O)C6)c43)cc2)ccn1` (centres unmarked) [Example 78, (Sa)-6-(4-Chloro-1-(4-(2-methoxypyridin-4-yl)benzyl)-1H-indazole-7-carboxamido)spiro[3.3]heptane-2-carboxylic acid], the figures for the IC50 on EP4 and against EP2 [3] were 4.4 nM and 99 nM, respectively.

With `COc1ccc(-c2ccc(Cn3ccc4c(F)ccc(C(=O)NC5CC6(C5)CC(C(=O)O)C6)c43)cc2)cc1Cl` (centres unmarked) [Example 25, (Sa)-6-(1-((3′-Chloro-4′-methoxy-[1,1′-biphenyl]-4-yl)methyl)-4-fluoro-1H-indole-7-carboxamido)spiro[3.3]heptane-2-carboxylic acid], the IC50 on EP4 is < 1 nM; against EP2 [3] it was < 25 nM.

With `O=C(NC1CC2(C1)CC(C(=O)O)C2)c1ccc(F)c2ccn(Cc3ccc(-c4ccncc4)cc3)c12` (centres unmarked) [Example 24, (Sa)-6-(4-Fluoro-1-(4-(pyridin-4-yl)benzyl)-1H-indole-7-carboxamido)spiro[3.3]heptane-2-carboxylic acid], in assay [1], the “more active enantiomer / diastereomer” value is “more active enantiomer”.

Turning to `CC(c1ccc(-c2ccccc2)cc1)n1ncc2cccc(C(=O)NC3CC4(C3)CC(C(=O)O)C4)c21` (single isomer, unassigned) [Example 125, (Sa)-6-(1-((R) or (S)-1-([1,1′-Biphenyl]-4-yl)-ethyl)-1H-indazole-7-carboxamido)spiro[3.3]heptane-2-carboxylic acid], the IC50 at EP4 is < 1 nM; against EP2 [3], < 25 nM. In addition, the “more active enantiomer / diastereomer” value in assay [1] was “more active diastereomer”.

For `O=C(NC1CC2(C1)CC(C(=O)O)C2)c1ccc(F)c2ccn(Cc3ccc(-c4ccccc4)c(F)c3)c12` (centres unmarked) [Example 65, (Sa)-6-(4-Fluoro-1-((2-fluoro-[1,1′-biphenyl]-4-yl)methyl)-1H-indole-7-carboxamido)spiro[3.3]heptane-2-carboxylic acid], the IC50 came out at 3 nM on EP4 and 43 nM against EP2 [3].

Turning to `[2H]C1(C(=O)O)CC2(CC(NC(=O)c3ccc(F)c4ccn(Cc5ccc(-c6ccccc6)cc5)c34)C2)C1` (centres unmarked) [Example 105, (Sa)-6-(1-([1,1′-Biphenyl]-4-ylmethyl)-4-fluoro-1H-indole-7-carboxamido)-2-deuterospiro[3.3]heptane-2-carboxylic acid], in assay [1], the “more active enantiomer / diastereomer” value is “more active enantiomer”.
